Patent US5288709A, “Erythromycin derivatives” (priority 1991, dated 1994)
Converted amounts (≈) assume the structure as drawn. Read-outs that look alike come from different tables or passages of the source.

Columns and labels:
Assay in all cases: In-vitro antimicrobial activity primary screen (agar dilution MIC)
Format in all cases: cell-based
Acinetobacter SP CMX 669 = test system: Acinetobacter SP CMX 669
Description: (§1) The antimicrobial spectra of several of the compounds of the present invention were tested as described below.
(§2) Twelve petri dishes containing successive aqueous dilutions of the test compounds, mixed with 10 mL of sterilized Brain Heart Infusion (BHI) agar (Difco 0418-01-5), were prepared. Each plate was inoculated with 1:100 (or 1:10 for slow growing strains (primarily Micrococcus and Streptococcus) dilutions of up to 32 different microorganisms, using a Steers replicator block. The inoculated plates were incubated at 35 37° C. for 20-24 hours. In addition, a control plate, using BHI agar containing no test compound, was prepared and incubated at the beginning and the end of each test.
(§3) An additional plate containing a compound having known susceptibility patterns for the organisms being tested and belonging to the same antibiotic class as the test compounds was also prepared and incubated as a further control, as well as to provide test-to test comparability.
(§4) After incubation, each plate was read. The MIC (minimum inhibitory concentration) is defined as the lowest concentration of test compound yielding no growth, a slight haze, or sparsely isolated colonies on the inoculum spot as compared to the growth control containing no test compound.

[1] = test system: Pseudomonas aeruginosa A5007
Description: as §1, §2, §3, §4

[2] = test system: Enterococcus faecium ATCC 8043
Description: as §1, §2, §3, §4

[3] = test system: Staphylococcus aureus A5177; details: Staphylococcus aureus A5177, BHI agar, 20-24 h
Description: as §1, §2, §3, §4

Escherichia coli SS = details: BHI agar, 20-24 h
Description: as §1, §2, §3, §4

[4] = test system: Staphylococcus aureus ATCC 6538P; details: BHI agar, 20-24 h
Description: as §1, §2, §3, §4

[5] = test system: Staphylococcus aureus 45 RAR2; details: BHI agar, 20-24 h
Description: as §1, §2, §3, §4

[6] = test system: Streptococcus bovis A5169; details: BHI agar, 20-24 h
Description: as §1, §2, §3, §4

Pseudomonas cepacia 2961 = details: BHI agar, 20-24 h
Description: as §1, §2, §3, §4

[7] = test system: Staphylococcus epidermidis 3519; details: BHI agar, 20-24 h
Description: as §1, §2, §3, §4

[8] = test system: Providencia stuartii CMX 640
Description: as §1, §2, §3, §4

[9] = test system: Pseudomonas aeruginosa BMH10; details: BHI agar, 20-24 h
Description: as §1, §2, §3, §4

[10] = test system: Pseudomonas aeruginosa K799/WT
Description: as §1, §2, §3, §4

Escherichia coli JUHL = details: Escherichia coli JUHL, BHI agar, 20-24 h
Description: as §1, §2, §3, §4

Escherichia coli DC-2 = details: Escherichia coli DC-2, BHI agar, 20-24 h
Description: as §1, §2, §3, §4

Escherichia coli H560 = details: Escherichia coli H560, BHI agar, 20-24 h
Description: as §1, §2, §3, §4

[11] = test system: Streptococcus agalactiae CMX 508; details: 20-24 h
Description: as §1, §2, §3, §4

[12] = test system: Micrococcus luteus ATCC 4698; details: BHI agar, 20-24 h
Description: as §1, §2, §3, §4

Staphylococcus aureus 45 = details: BHI agar, 20-24 h
Description: as §1, §2, §3, §4

[13] = test system: Klebsiella pneumoniae ATCC 8045; details: Klebsiella pneumoniae ATCC 8045, BHI agar, 20-24 h
Description: as §1, §2, §3, §4

[14] = test system: Pseudomonas aeruginosa K799/61; details: Pseudomonas aeruginosa K799/61, BHI agar, 20-24 h
Description: as §1, §2, §3, §4

[15] = test system: Micrococcus luteus ATCC 9341; details: BHI agar, 20-24 h
Description: as §1, §2, §3, §4

[16] = test system: Enterobacter aerogenes ATCC 13048; details: Enterobacter aerogenes ATCC 13048, BHI agar, 20-24 h
Description: as §1, §2, §3, §4

[17] = test system: Streptococcus pyrogenes 2548 INDUC; details: BHI agar, 20-24 h
Description: as §1, §2, §3, §4

[18] = test system: Streptococcus pyrogenes EES61; details: BHI agar, 20-24 h
Description: as §1, §2, §3, §4

[19] = test system: Staphylococcus aureus CMX 503A; details: BHI agar, 20-24 h
Description: as §1, §2
as §3, with “comparability. Erythromycin A was used for this purpose.” for “comparability.”
as §4

[20] = test system: Staphylococcus aureus CMX 553; details: BHI agar, 20-24 h
Description: as §1, §2
as §3, with “comparability. Erythromycin A was used for this purpose.” for “comparability.”
as §4

[21] = test system: Staphylococcus aureus CMX 686B; details: BHI agar, 20-24 h
Description: as §1, §2
as §3, with “comparability. Erythromycin A was used for this purpose.” for “comparability.”
as §4

CC[C@H]1OC(=O)[C@H](C)[C@@H](O[C@H]2C[C@@](C)(OC)[C@@H](OC(N)=O)[C@H](C)O2)[C@H](C)[C@@H](O[C@@H]2O[C@H](C)C[C@H](N(C)C)[C@H]2O)[C@](C)(O)C[C@@H](C)[C@@H]2O[C@@]1(C)[C@@H](O)[C@H]2C [Example 17, (9S,11S)-4"-O-Aminocarbonyl-9-deoxo-12-deoxy-9,12-epoxyerythromycin A]
MIC (Acinetobacter SP CMX 669; Acinetobacter, SPCMX669, 24 h): 50 µg/mL (≈ 65.7 µM)
MIC ([1]; Pseudomonas aeruginosa, A5007, 24 h): > 100 µg/mL
MIC ([2]; Enterococcus faecium, ATCC8043, 24 h): 0.2 µg/mL (≈ 0.263 µM)
MIC ([3]; read-out: MIC): 12.5 µg/mL (≈ 16.4 µM)
MIC (Escherichia coli SS; Escherichia coli, 24 h): 0.2 µg/mL (≈ 0.263 µM)
MIC ([4]; Staphylococcus aureus, ATCC6538P, 24 h): 0.2 µg/mL (≈ 0.263 µM)
MIC ([5]; Staphylococcus aureus, 45RAR2, 24 h): 0.39 µg/mL (≈ 0.513 µM)
MIC ([6]; Streptococcus equinus, A5169, 24 h): 0.05 µg/mL (≈ 0.0657 µM)
MIC (Pseudomonas cepacia 2961; Burkholderia cepacia, 2961, 24 h): > 100 µg/mL
MIC ([7]; read-out: MIC): 0.78 µg/mL (≈ 1.03 µM)
MIC ([8]; Providencia stuartii, CMX640, 24 h): > 100 µg/mL
MIC ([9]; Pseudomonas aeruginosa, BMH10, 24 h): 25 µg/mL (≈ 32.9 µM)
MIC ([10]; Pseudomonas aeruginosa, K799/WT, 24 h): 25 µg/mL (≈ 32.9 µM)
MIC (Escherichia coli JUHL; Escherichia coli, 24 h): 50 µg/mL (≈ 65.7 µM)
MIC (Escherichia coli DC-2; Escherichia coli, DC2, 24 h): 50 µg/mL (≈ 65.7 µM)
MIC (Escherichia coli H560; Escherichia coli, H560, 24 h): 25 µg/mL (≈ 32.9 µM)
MIC ([11]; CMX508, BHI agar, read-out: MIC): 0.02 µg/mL (≈ 0.0263 µM)
MIC ([12]; Micrococcus luteus, ATCC4698, 24 h): 0.2 µg/mL (≈ 0.263 µM)
MIC (Staphylococcus aureus 45; Staphylococcus aureus, 45, 24 h): 0.78 µg/mL (≈ 1.03 µM)
MIC ([13]; Klebsiella pneumoniae, ATCC8045, 24 h): 25 µg/mL (≈ 32.9 µM)
MIC ([14]; read-out: MIC): 0.78 µg/mL (≈ 1.03 µM)
MIC ([15]; Micrococcus luteus, ATCC9341, 24 h): 0.05 µg/mL (≈ 0.0657 µM)
MIC ([16]; Klebsiella aerogenes, ATCC13048, 24 h): 50 µg/mL (≈ 65.7 µM)
MIC ([17]; read-out: MIC): 1.56 µg/mL (≈ 2.05 µM)
MIC ([18]; read-out: MIC): 0.02 µg/mL (≈ 0.0263 µM)
MIC ([19]; Staphylococcus aureus, CMX503A, 24 h, read-out: MIC): 0.39 µg/mL (≈ 0.513 µM)
MIC ([20]; Staphylococcus aureus, CMX553, 24 h, read-out: MIC): 0.39 µg/mL (≈ 0.513 µM)
MIC ([21]; CMX686B, read-out: MIC): 0.39 µg/mL (≈ 0.513 µM)

CC[C@H]1OC(=O)[C@H](C)[C@@H](O[C@H]2C[C@@](C)(OC)[C@@H](O)[C@H](C)O2)[C@H](C)[C@@H](O[C@@H]2O[C@H](C)C[C@H](N(C)C)[C@H]2O)[C@](C)(O)C[C@@H](C)[C@@H]2O[C@@]1(C)C(=NO)[C@H]2C [Example 18, (9S)-9-Deoxo-11,12-dideoxy-9,12-epoxy-11-hydroxyiminoerythromycin A]
MIC (Acinetobacter SP CMX 669; Acinetobacter SP CMX 669, BHI agar, 20-24 h): > 100 microgram/mL
MIC ([1]; Pseudomonas aeruginosa A5007, BHI agar, 20-24 h): > 100 microgram/mL
MIC ([2]; Enterococcus faecium ATCC 8043, BHI agar, 20-24 h): 0.2 microgram/mL
MIC [3]: 0.78 microgram/mL
MIC (Escherichia coli SS): 1.56 microgram/mL
MIC [4]: 0.2 microgram/mL
MIC [5]: 0.39 microgram/mL
MIC [6]: 0.1 microgram/mL
MIC (Pseudomonas cepacia 2961): > 100 microgram/mL
MIC [7]: 0.39 microgram/mL
MIC ([8]; Providencia stuartii CMX 640, BHI agar, 20-24 h): > 100 microgram/mL
MIC [9]: > 100 microgram/mL
MIC ([10]; Pseudomonas aeruginosa K799/WT, BHI agar, 20-24 h): > 100 microgram/mL
MIC (Escherichia coli JUHL): > 100 microgram/mL
MIC (Escherichia coli DC-2): > 100 microgram/mL
MIC (Escherichia coli H560): > 100 microgram/mL
MIC ([11]; BHI agar): 0.05 microgram/mL
MIC [12]: 0.1 microgram/mL
MIC (Staphylococcus aureus 45): 0.2 microgram/mL
MIC [13]: > 100 microgram/mL
MIC [14]: 6.2 microgram/mL
MIC [15]: 0.1 microgram/mL
MIC [16]: > 100 microgram/mL
MIC [17]: 1.56 microgram/mL
MIC [18]: 0.02 microgram/mL
MIC [19]: 0.2 microgram/mL
MIC [20]: 0.2 microgram/mL
MIC [21]: 0.2 microgram/mL
